Read-outs that look alike come from different tables or passages of the source.
Tests used:
[1] = test system: acute intoxication of male Wistar rats with ethylene glycol (EG); conditions: rat, in vivo
in vivo = conditions: male, Wistar, rat, sc

SMILES | LD10 (toxicity parameter of EG) ([1]; male, Wistar, sc) [mg/kg] | LD16 (toxicity parameter of EG) ([1]; male, Wistar, sc) [mg/kg] | LD84 (toxicity parameter of EG) ([1]; male, Wistar, sc) [mg/kg] | LD90 (toxicity parameter of EG) ([1]; male, Wistar, sc) [mg/kg] | LD50 (in vivo) [mg/kg] | LD50 (toxicity parameter of EG) ([1]; male, Wistar, sc) [mg/kg] | K - Coefficient of efficiency (ratio of LD50 for treated animals to LD50 for non-treated animals) [1] | KG - Coefficient of guaranteed defense (ratio of LD10 for treated animals to LD90 for non-treated animals) [1] | LD10 (toxicity parameter of EG) ([1]; sc) [mg/kg] | LD16 (toxicity parameter of EG) ([1]; sc) [mg/kg] | LD84 (toxicity parameter of EG) ([1]; sc) [mg/kg] | LD90 (toxicity parameter of EG) ([1]; sc) [mg/kg]
OCCO [EG, Ethylene Glycol] | 2220 | 2490 | 4530 | 5200 | 3500 | – | – | – | – | – | – | –
Cc1cn[nH]c1 [4MP, 4-methylpyrazole] | – | – | – | – | – | 13000 | 3.71 | 2.04 | 10600 | 11000 | 15200 | 16100
